The results in this text go back to patent publication US20190125869A1, “PULSED ELECTROMAGNETIC THERAPY FOR DIRECTING AGENTS TO CANCER CELLS” (MMTC, Inc., priority 2017, published 2019).

For this test, the system named is AT2 prostatic tumor of rats. Put plainly: Growth of implanted tumors after intravenous Taxol, with or without pulsed microwaves. It counts as in vivo, Copenhagen rats. The method, then: Treatment times were 30 minutes.
One rat with four implanted tumors, two in each flank, was used. Taxol was injected intravenously at 5 mg/kg. The two lower (right and left) tumors were treated as described above with pulsed microwaves, beginning immediately after the injection. Tumor growth was monitored over 14 days.

For the compound `CC(=O)O[C@H]1C(=O)[C@@]2(C)[C@H]([C@H](OC(=O)c3ccccc3)[C@]3(O)C[C@H](OC(=O)[C@H](O)[C@@H](NC(=O)c4ccccc4)c4ccccc4)C(C)=C1C3(C)C)[C@]1(OC(C)=O)CO[C@@H]1C[C@@H]2O` [Taxol], the tumor size result reads like this: (Taxol 5 mg/kg intravenously plus pulsed microwaves (two treated tumors), after 14 days) “barely detectable”; (Taxol 5 mg/kg intravenously plus pulsed microwaves (two treated tumors), at 5 days) “almost disappeared”; (Taxol 5 mg/kg intravenously, non-pulsed control tumors in the same rat, at 5 days) “remained large”. Besides, the tumor growth result (Taxol 5 mg/kg intravenously, non-pulsed control tumors in the same rat, after 14 days) was “continued to grow”. Also, where the note is “microwave pulsing combined with systemically administered Taxol, pilot study summary”, the remission of tumors result is given as “remission of tumors could be obtained”.
